Laboratory results from patent US10947252B2, “Inhibitors of KEAP1-Nrf2 protein-protein interaction” (Janssen Pharmaceutica NV, priority 2018, dated 2021).

Columns and labels:
[1] = test system: Glo-Response ARE-luc2P HEK293 cell line; experiment: ARE luciferase reporter cell-based assay; settings: Homo sapiens, HEK293, 24 h, average of results obtained;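 note: luciferase signal tracks Nrf2 activation of the ARE once compounds disrupt KEAP1-Nrf2 binding, read with One-Glo reagent, DMSO serving as low control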
[2] = biological target: Kelch domain of human KEAP1 (321-624 aa) (Homo sapiens (Human), UniProt Q14145); experiment: KEAP1 KELCH ThermoFluor binding assay; settings: KEAP Kelch […], 1,8-ANS, pH 7.0, average of results obtained, read-out: Tf Kd;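 note: Ligand-induced melting temperature shift of E. coli-expressed KEAP1 Kelch protein, Kd estimated from concentration-response curves of ΔTm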
Chain of Kelch domain of human KEAP1 (321-624 aa) (Q14145 321-624): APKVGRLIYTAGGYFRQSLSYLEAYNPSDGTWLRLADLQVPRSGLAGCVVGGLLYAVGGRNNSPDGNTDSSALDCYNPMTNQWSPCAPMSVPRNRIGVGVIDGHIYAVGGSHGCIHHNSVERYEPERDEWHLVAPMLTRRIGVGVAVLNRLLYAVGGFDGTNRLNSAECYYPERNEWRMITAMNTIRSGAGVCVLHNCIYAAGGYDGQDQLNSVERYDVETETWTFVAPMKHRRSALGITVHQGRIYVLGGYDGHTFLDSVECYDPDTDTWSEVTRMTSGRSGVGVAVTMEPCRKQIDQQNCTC

Kd [2] | Structure (SMILES) | EC50 [1]
< 1 nM | Cc1ccc([C@@H](CC(=O)O)c2ccn3c(C(F)(F)F)nnc3c2C)nc1CN1CC2(COC2)Oc2ncccc2S1(=O)=O (single isomer, unassigned) [Example 494, (*S)-3-(6-((1′,1′-Dioxidospiro[oxetane-3,4′-pyrido[2,3-b][1,4,5]oxathiazepin]-2′(3′H)-yl)methyl)-5-methylpyridin-2-yl)-3-(8-methyl-3-(trifluoromethyl)-[1,2,4]triazolo[4,3-a]pyridin-7-yl)propanoic Acid] | 577 nM
49 nM | Cc1ccc(C(CC(=O)O)c2ccn3c(C(F)(F)F)nnc3c2C)cc1CN1C[C@@H]2CN(C)CCN2c2ncccc2S1(=O)=O (mixture of isomers) [Example 177, (R/S)-3-(4-Methyl-3-(((*S)-9-methyl-5,5-dioxido-7,7a,8,9,10,11-hexahydro-6H-pyrazino[2,1-d]pyrido[2,3-f][1,2,5]thiadiazepin-6-yl)methyl)phenyl)-3-(8-methyl-3-(trifluoromethyl)-[1,2,4]triazolo[4,3-a]pyridin-7-yl)propanoic Acid] | 1390 nM
< 1 nM | Cc1ccc(C(CC(=O)O)c2ccc3c(nnn3CC3CC3)c2C)cc1CN1C[C@H]2CCCCN2c2ncccc2S1(=O)=O (mixture of isomers) [Example 234, (R/S)-3-(1-(Cyclopropylmethyl)-4-methyl-1H-benzo[d][1,2,3]triazol-5-yl)-3-(3-(((*R)-5,5-dioxido-7,7a,8,9,10,11-hexahydro-6H-dipyrido[2,1-d:2′,3′-f][1,2,5]thiadiazepin-6-yl)methyl)-4-methylphenyl)propanoic Acid] | 3.3 nM
< 1 nM | Cc1ccc(C(CC(=O)O)c2ccc3c(nnn3CC3CC3)c2C)cc1CN1CC2(COC2)Oc2ccccc2S1(=O)=O (stereo not drawn) [Example 74, 3-(1-(Cyclopropylmethyl)-4-methyl-1H-benzo[d][1,2,3]triazol-5-yl)-3-(3-((1′,1′-dioxidospiro[benzo[b][1,4,5]oxathiazepin-4,3′-oxetan]-2,(3H)-yl)methyl)-4-methylphenyl)propanoic Acid] | 24 nM
1.26 nM | Cc1cc2cc([C@H](CC(=O)O)c3ccc(C)c(CN4C[C@@H]5CCCN5c5ncccc5S4(=O)=O)c3)n(C)c2nn1 (single isomer, unassigned) [Example 439, (*R)-3-(3,7-Dimethyl-7H-pyrrolo[2,3-c]pyridazin-6-yl)-3-(3-(((S)-5,5-dioxido-7a,8,9,10-tetrahydropyrido[2,3-f]pyrrolo[2,1-d][1,2,5]thiadiazepin-6(7H)-yl)methyl)-4-methylphenyl)propanoic Acid] | 2440 nM
< 1 nM | CC[C@@H]1CN(Cc2cc(C(CC(=O)O)c3ccn4c(C(F)(F)F)nnc4c3)ccc2C)S(=O)(=O)c2cccnc2O1 (stereo partly drawn) [Example 256, 3-(3-(((R)-4-Ethyl-1,1-dioxido-3,4-dihydro-2H-pyrido[2,3-b][1,4,5]oxathiazepin-2-yl)methyl)-4-methylphenyl)-3-(3-(trifluoromethyl)-[1,2,4]triazolo[4,3-a]pyridin-7-yl)propanoic Acid] | 379 nM

Further lines, the compound ahead of its results:

Structure (SMILES) | Kd [2] | EC50 [1]
Cc1ccc([C@@H](CC(=O)O)c2ccn3c(C(F)(F)F)nnc3c2C)cc1CN1C[C@]2(C)CCCN2c2ncccc2S1(=O)=O (single isomer, unassigned) [Example 187, (*R)-3-(4-Methyl-3-(((*S)-7a-methyl-5,5-dioxido-7a,8,9,10-tetrahydropyrido[2,3-f]pyrrolo[2,1-d][1,2,5]thiadiazepin-6(7H)-yl)methyl)phenyl)-3-(8-methyl-3-(trifluoromethyl)-[1,2,4]triazolo[4,3-a]pyridin-7-yl)propanoic Acid] | < 1 nM | 550 nM
CC[C@@H]1CN(Cc2cc(C(CC(=O)O)c3ccn4c(C(F)(F)F)nnc4c3)ccc2C)S(=O)(=O)c2cccnc2O1 (single isomer, unassigned) [Example 258, (*R)-3-(3-(((R)-4-Ethyl-1,1-dioxido-3,4-dihydro-2H-pyrido[2,3-b][1,4,5]oxathiazepin-2-yl)methyl)-4-methylphenyl)-3-(3-(trifluoromethyl)-[1,2,4]triazolo[4,3-a]pyridin-7-yl)propanoic Acid] | < 1 nM | 428 nM
Cc1cnc2c(c1)S(=O)(=O)N(Cc1cc([C@H](c3ccn4c(C(F)(F)F)nnc4c3C)C(C)(C)C(=O)O)ccc1C)CC1(CCNCC1)O2 (single isomer, unassigned) [Example 341, (*R)-2,2-Dimethyl-3-(4-methyl-3-((8′-methyl-1′,1′-dioxidospiro[piperidine-4,4′-pyrido[2,3-b][1,4,5]oxathiazepin]-2′(3′H)-yl)methyl)phenyl)-3-(8-methyl-3-(trifluoromethyl)-[1,2,4]triazolo[4,3-a]pyridin-7-yl)propanoic Acid] | 18800 nM | > 20 nM
Cc1cnc2c(c1)S(=O)(=O)N(Cc1cc([C@H](CC(=O)O)c3ccn4c(C(F)F)nnc4c3C)ccc1C)CC1(CC1)O2 (single isomer, unassigned) [Example 536, (*S)-3-(3-(Difluoromethyl)-8-methyl-[1,2,4]triazolo[4,3-a]pyridin-7-yl)-3-(4-methyl-3-((8′-methyl-1′,1′-dioxidospiro[cyclopropane-1,4′-pyrido[2,3-b][1,4,5]oxathiazepin]-2′(3′H)-yl)methyl)phenyl)propanoic Acid] | < 1 nM | 59.7 nM
Cc1ccc([C@H](CC(=O)O)c2ccn3c(C(F)F)nnc3c2C)cc1CN1CC2(CC2)Oc2ncc(F)cc2S1(=O)=O (single isomer, unassigned) [Example 527, (*S)-3-(3-(Difluoromethyl)-8-methyl-[1,2,4]triazolo[4,3-a]pyridin-7-yl)-3-(3-((8′-fluoro-1′,1′-dioxidospiro[cyclopropane-1,4′-pyrido[2,3-b][1,4,5]oxathiazepin]-2′(3′H)-yl)methyl)-4-methylphenyl)propanoic Acid] | < 1 nM | 22.2 nM
Cc1ccc([C@H](c2ccn3c(C4CC4)nnc3c2C)C(C)(C)C(=O)O)cc1CN1CC2(CC2)Oc2nc(OCCN3CCCC3)c(C)cc2S1(=O)=O (single isomer, unassigned) [Example 664, (*R)-3-(3-Cyclopropyl-8-methyl-[1,2,4]triazolo[4,3-a]pyridin-7-yl)-2,2-dimethyl-3-(4-methyl-3-((8′-methyl-1′,1′-dioxido-7′-(2-(pyrrolidin-1-yl)ethoxy)spiro[cyclopropane-1,4′-pyrido[2,3-b][1,4,5]oxathiazepin]-2′(3′H)-yl)methyl)phenyl)propanoic Acid] | 1840 nM | > 20000 nM
CCn1nnc2c(C)c([C@H](CC(=O)O)c3ccc(C)c(CN4C[C@H]5CCCN5c5ncccc5S4(=O)=O)c3)ccc21 (single isomer, unassigned) [Example 22, (*R)-3-(3-(((R)-5,5-Dioxido-7a,8,9,10-tetrahydropyrido[2,3-f]pyrrolo[2,1-d][1,2,5]thiadiazepin-6(7H)-yl)methyl)-4-methylphenyl)-3-(1-ethyl-4-methyl-1H-benzo[d][1,2,3]triazol-5-yl)propanoic Acid] | 0.081 nM | 3.9 nM
CCn1nnc2c(C)c([C@@H](c3ccc(C)c(CN4CC5(CCOCC5)Oc5ncccc5S4(=O)=O)n3)C(C)(C)C(=O)O)ccc21 (single isomer, unassigned) [Example 556, (*R)-3-(6-((1′,1′-Dioxido-2,3,5,6-tetrahydrospiro[pyran-4,4′-pyrido[2,3-b][1,4,5]oxathiazepin]-2′(3′H)-yl)methyl)-5-methylpyridin-2-yl)-3-(1-ethyl-4-methyl-1H-benzo[d][1,2,3]triazol-5-yl)-2,2-dimethylpropanoic Acid] | 4940 nM | 1750 nM
Cc1ccc([C@@H](c2ccn3c(C(F)(F)F)nnc3c2C)C(C)(C)C(=O)O)cc1CN1C[C@H]2CCCCN2c2ncc(C#N)cc2S1(=O)=O (single isomer, unassigned) [Example 422, (*S)-3-(3-(((*R)-3-cyano-5,5-dioxido-7,7a,8,9,10,11-hexahydro-6H-dipyrido[2,1-d:2′,3′-f][1,2,5]thiadiazepin-6-yl)methyl)-4-methylphenyl)-2,2-dimethyl-3-(8-methyl-3-(trifluoromethyl)-[1,2,4]triazolo[4,3-a]pyridin-7-yl)propanoic Acid] | < 1 nM | 1.3 nM
Cc1c([C@H](CC(=O)O)c2ccc(Cl)c(CN3CC4CCCCN4c4ncc(F)cc4S3(=O)=O)c2)ccn2c(C(F)(F)F)nnc12 (single isomer, unassigned) [Example 93, (*R)-3-(4-Chloro-3-(((*S)-3-fluoro-5,5-dioxido-7,7a,8,9,10,11-hexahydro-6H-dipyrido[2,1-d:2′,3′-f][1,2,5]thiadiazepin-6-yl)methyl)phenyl)-3-(8-methyl-3-(trifluoromethyl)-[1,2,4]triazolo[4,3-a]pyridine-7-yl)propanoic Acid] | < 1 nM | 10 nM
Cc1ccc(C(CC(=O)O)c2ccn3c(C(F)(F)F)nnc3c2C)nc1CN1CC2CCCCN2c2ncc(Cl)cc2S1(=O)=O (stereo not drawn) [Example 518, 3-(6-((3-Chloro-5,5-dioxido-7,7a,8,9,10,11-hexahydro-6H-dipyrido[2,1-d:2′,3′-f][1,2,5]thiadiazepin-6-yl)methyl)-5-methylpyridin-2-yl)-3-(8-methyl-3-(trifluoromethyl)-[1,2,4]triazolo[4,3-a]pyridin-7-yl)propanoic Acid] | < 1 nM | 3.48 nM
Cc1cnc([C@@H](c2ccn3c(C(F)F)nnc3c2C)C(C)(C)C(=O)O)cc1CN1CC2(CCOCC2)Oc2nc(OCCN3CCCCC3)c(C)cc2S1(=O)=O (single isomer, unassigned) [Example 642, (*S)-3-(3-(Difluoromethyl)-8-methyl-[1,2,4]triazolo[4,3-a]pyridin-7-yl)-2,2-dimethyl-3-(5-methyl-4-((8′-methyl-1′,1′-dioxido-7′-(2-(piperidin-1-yl)ethoxy)-2,3,5,6-tetrahydrospiro[pyran-4,4′-pyrido[2,3-b][1,4,5]oxathiazepin]-2′(3′H)-yl)methyl)pyridin-2-yl)propanoic Acid] | < 1 nM | 36.6 nM
